What was measured:
[1] = test system: p-aurora kinase A (T288); assay: Western blotting of phospho-aurora kinase A in H1975 cells; format: cell-based, human; conditions: 24 h
From the text: (§1) The cells were collected and lysed in sample loading buffer (Bio-Rad, Hercules, CA, USA). Total protein concentrations were quantified using a BCA Protein Assay Kit (Thermo Fisher Scientific, Waltham, MA, USA). Quantified proteins were loaded onto SDS-polyacrylamide gels and separated by molecular weight via electrophoresis (PAGE). Then, proteins were transferred to polyvinylidene fluoride membranes (Millipore, Bedford, MA, USA); 5% BSA in Tris-buffered saline containing 0.1% Tween-20 (TBST) was used for blocking. The membranes were blocked for 30 min at room temperature with mild shaking, then incubated with antibodies diluted in 2.5% BSA in TBST overnight at 4 °C with mild shaking. Following secondary antibody incubation and washing with TBST, the chemiluminescence signals were detected using the WEST-Queen detection system (iNtRON Biotechnology, Seongnam, Korea) and LAS-4000 (Fuji Film Corp., Tokyo, Japan).

[2] = test system: HCC827-gef cells; assay: SRB cell proliferation assay; conditions: Homo sapiens, 72 h, read-out: IC50 value, HCC827-gef
Description: (§3) The human non-small lung cancer cell lines A549, NCI-H1975, NCI-H1299, and NCI-H1993 were purchased from the American Type Culture Collection (Manassas, VA, USA). The human non-small cell lung cancer cell lines HCC827, PC9, HCC827-gef and PC9-gef were a kind gift from Dr. Jae Cheol Lee and Dr. Jin Kyung Rho (Asan Medical Center, Seoul, Korea). […] Cells were incubated at 37 °C in a humidified atmosphere with 5% CO2.
(§4) Cell viability was measured using the SRB method as described previously [58]. Briefly, cells were seeded with different concentrations of compounds and incubated for 72 h. After 72 h incubation, cells were fixed with 10% TCA for 30 min at 4 °C and stained with 0.4% (w/v) SRB in 1% acetic acid for 2 h at room temperature.

[3] = test system: PC9 cells; assay: SRB cell proliferation assay; conditions: Homo sapiens, PC-9, 72 h, read-out: IC50 value, PC9
Description: as §3, §4

[4] = test system: HCC827 cells; assay: SRB cell proliferation assay; conditions: Homo sapiens, HCC827, 72 h, read-out: IC50 value, HCC827
Description: as §3, §4

[5] = test system: cleaved PARP, PARP, cleaved caspase-8, and caspase-8 proteins; assay: Western blotting of apoptosis-related proteins in H1975 cells; format: cell-based, human; conditions: H1975, 72 h, concentration-dependent
From the text: as §1

[6] = test system: cdc25C, cdc2, and p21 proteins; assay: Western blotting of cell cycle regulators in H1975 cells; format: cell-based, human; conditions: H1975, 24 h
From the text: as §1

[7] = test system: H1993 cells; assay: SRB cell proliferation assay; conditions: Homo sapiens, NCI-H1993, 72 h, read-out: IC50 value, H1993
Description: as §3, §4

[8] = test system: H1975 cells; assay: SRB cell proliferation assay; conditions: Homo sapiens, NCI-H1975, 72 h, read-out: IC50 value, H1975
Description: as §3, §4

[9] = test system: H1975 cells; assay: Colony formation assay; format: cell-based, human; conditions: treated 48 h, additional ten days without compound
Description: Cells (500 cells/well) were seeded and cultured overnight. The compounds were treated for 48 h, the cells were washed with phosphate buffered saline (PBS), and continued incubation. Culture medium was replaced every three days for ten days. Cells were fixed with 4% paraformaldehyde solution and stained with 0.1% crystal violet.

[10] = molecular target: T1, Recombinant human aurora B protein (Homo sapiens, UniProt Q96GD4); assay: Cell-free aurora kinase assay (ADP-Glo); format: biochemical; conditions: myelin basic protein substrate, read-out: Aurora Kinase B Inhibition (IC50)
T1 construct: purchased Abcam ab51435
Description: (§2) Aurora A kinase activity was measured using an ADP-Glo™ Kinase assay kit (Promega, USA, Catalog No. # PAV9101). Recombinant human aurora A protein (Active) (ab271368) and Recombinant human aurora B protein (Active) (ab51435) were purchased from Abcam (United States, Boston, MA). […] The ADP-Glo ^TM reagents and kinase detection buffer and substrates were prepared according to the ADP-Glo™ Kinase Assay kit instructions. Luminescence was measured using a microplate reader.

[11] = molecular target: T2, Recombinant human aurora A protein (Homo sapiens, UniProt O14965); assay: Cell-free aurora kinase assay (ADP-Glo); format: biochemical; conditions: myelin basic protein substrate, read-out: Aurora Kinase A Inhibition (IC50)
T2 construct: purchased Abcam ab271368
T2 sequence (O14965 1-403): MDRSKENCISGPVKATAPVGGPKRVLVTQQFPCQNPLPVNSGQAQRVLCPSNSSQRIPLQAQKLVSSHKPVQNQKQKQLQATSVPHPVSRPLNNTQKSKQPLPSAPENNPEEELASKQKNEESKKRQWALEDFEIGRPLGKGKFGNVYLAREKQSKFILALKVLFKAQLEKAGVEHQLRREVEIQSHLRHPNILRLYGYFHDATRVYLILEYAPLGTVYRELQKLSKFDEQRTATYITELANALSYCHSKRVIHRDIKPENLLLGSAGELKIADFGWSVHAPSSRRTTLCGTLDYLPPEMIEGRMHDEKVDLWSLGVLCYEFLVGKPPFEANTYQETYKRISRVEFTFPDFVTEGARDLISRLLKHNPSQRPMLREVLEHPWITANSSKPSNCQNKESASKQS
Description: as §2

[12] = test system: PC9-gef cells; assay: SRB cell proliferation assay; conditions: Homo sapiens, 72 h, read-out: IC50 value, PC9-gef
Description: as §3, §4

[13] = test system: A549 cells; assay: SRB cell proliferation assay; conditions: Homo sapiens, A549, 72 h, read-out: IC50 value, A549
Description: as §3, §4

[14] = test system: H1975 cells; assay: Cell cycle analysis (PI staining, flow cytometry); format: cell-based, human; conditions: for Sub-G1 cell population: 72 h (Figure 5A)
Description: Cells were seeded and starved in serum-free medium overnight. After starvation, the cells were treated with compounds for the indicated times. After incubation, cells were harvested, washed with PBS, and fixed with 70% ethanol in PBS overnight at −20 °C. The fixed cells were washed with PBS, resuspended in 100 µg/mL of RNase A for 30 min at room temperature, and stained with 50 µg/mL PI. Fluorescence intensity was analyzed using a FACSCalibur flow cytometer (BD Biosciences, San Jose, CA, USA) and BD CellQuest^TM Pro version 6.0 software (BD Biosciences, San Jose, CA, USA).

[15] = test system: H1299 cells; assay: SRB cell proliferation assay; conditions: Homo sapiens, NCI-H1299, 72 h, read-out: IC50 value, H1299
Description: as §3, §4

[16] = test system: H1975 cells; assay: Annexin V-FITC/PI double staining (flow cytometry); format: cell-based, human
Description: Cells were treated with samples for 72 h and stained with an Annexin V-FITC apoptosis detection kit (BD Biosciences, San Jose, CA, USA) according to the manufacturer’s instructions. Briefly, cells were collected after 72 h treatment, washed with PBS, resuspended in 1× binding buffer, and stained with Annexin V-FITC and PI in the dark for 15 min. After incubation, the cells were diluted with 1× binding buffer and analyzed using an FACSCalibur flow cytometer (BD Biosciences, San Jose, CA, USA) and BD CellQuest^TM Pro version 6.0 software (BD Biosciences, San Jose, CA, USA).

T1 sequence (Q96GD4 whole entry): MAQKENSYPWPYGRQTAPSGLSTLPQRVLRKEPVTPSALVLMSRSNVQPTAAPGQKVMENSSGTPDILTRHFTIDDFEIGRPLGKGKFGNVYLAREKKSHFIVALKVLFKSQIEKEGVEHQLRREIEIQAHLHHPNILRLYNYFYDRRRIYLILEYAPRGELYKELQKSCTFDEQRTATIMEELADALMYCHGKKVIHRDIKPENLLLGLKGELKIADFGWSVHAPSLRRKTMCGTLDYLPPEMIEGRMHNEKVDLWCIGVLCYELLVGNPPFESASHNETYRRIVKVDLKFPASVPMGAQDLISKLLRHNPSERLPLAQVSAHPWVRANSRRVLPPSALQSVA

IC50 [2]	IC50 [3]	IC50 [4]	IC50 [7]	IC50 [8]	IC50 [12]	IC50 [13]	IC50 [15]	SMILES	further results
4.43 ± 0.35 µM	16.4 ± 1.44 µM	4.84 ± 0.17 µM	5.5 ± 1.69 µM	4.76 ± 0.17 µM	9.21 ± 0.51 µM	3.63 ± 0.28 µM	5.3 ± 0.06 µM	CCOC(=O)c1cn2cc(-c3ccc4ncn(Cc5ncccn5)c(=O)c4c3)ccc2n1 [BIQO-19, ethyl 6-(4-oxo-3-(pyrimidin-2-ylmethyl)-3,4-dihydroquinazolin-6-yl)imidazo [1,2-a]pyridine-2-carboxylate]	levels of p-aurora kinase A (T288) expression [1]: suppressed by BIQO-19 treatment in a concentration-dependent manner; expression levels of PARP and caspase-8 (inactivated forms) [5]: downregulated; expression levels of cleaved PARP and cleaved caspase-8 (activated forms) [5]: upregulated; cdc25C and cdc2 expression [6]: effectively downregulated; p21 expression [6]: upregulated; colony formation in H1975 cells [9]: significant inhibition of colony formation; IC50 [10]: 0.581 ± 0.0138 µM; IC50 [11]: 0.0685 ± 0.00645 µM; Sub-G1 cell population ([14]; H1975, 1 μM): 2.54%; Sub-G1 cell population ([14]; H1975, 2 μM): 2.60%; G2/M cell population ([14]; H1975, 4 μM, 12 h (Figure 4A)): 35.3%; G2/M cell population ([14]; H1975, 4 μM, 24 h (Figure 4A)): 52.0%; Sub-G1 cell population ([14]; H1975, 4 μM): 15.5%; total cell deaths (early apoptosis + late apoptosis + necrosis) ([16]; H1975, 4 μM, 72 h (Figure 5B,C)): 26.67%; early apoptosis fraction ([16]; H1975, 72 h, single vs combination treatment (Figure 6C)): 17.6%; total cell death ([16]; H1975, 72 h, single vs combination treatment (Figure 6D)): 27.1%
6.4 ± 0.6 µM	15 ± 1.41 µM	4.14 ± 0.64 µM	4.57 ± 0.29 µM	2.81 ± 0.43 µM	6.75 ± 0.71 µM	6.11 ± 1.14 µM	5.54 ± 0.85 µM	CCC(=O)Nc1nc2ccc(-c3ccc4ncn(CCc5cc6ccccc6[nH]5)c(=O)c4c3)cc2[nH]1 [FL-4, reference compound]	
